Like-named read-outs stand apart in the source and are kept apart here.
What was measured:
Format in all cases: in vivo
[1] = test system: Spodoptera littoralis (Egyptian Cotton Leaf Worm); test: Example B1: Spodoptera littoralis, sprayed cotton leaf discs; conditions: foliar, 72 h, read-out: control (at least one of mortality, anti-feedant effect, growth inhibition)
Method: Example B1: Spodoptera littoralis (Egyptian Cotton Leaf Worm)
Cotton leaf discs were placed on agar in 24-well microtiter plates and sprayed with aqueous test solutions prepared from 10′000 ppm DMSO stock solutions. After drying, the leaf discs were infested with five L1 larvae. The samples were assessed for mortality, anti-feedant effect, and growth inhibition in comparison to untreated samples 3 days after infestation. Control of Spodoptera littoralis by a test sample is when at least one of mortality, anti-feedant effect, and growth inhibition is higher than the untreated sample.

[2] = test system: Spodoptera littoralis (Egyptian Cotton Leaf Worm); test: Example B2: Spodoptera littoralis, systemic test via lettuce roots in agar; conditions: 144 h, test rate of 12.5 ppm, uptake via lettuce roots, 6 days after infestation, read-out: effect in at least one of the three categories (mortality, anti-feedancy, or growth inhibition)
From the text: Example B2: Spodoptera littoralis (Egyptian Cotton Leaf Worm)
Test compounds were applied by pipette from 10′000 ppm DMSO stock solutions into 24-well plates and mixed with agar. Lettuce seeds were placed on the agar and the multi well plate was closed by another plate which contains also agar. After 7 days the roots have absorbed the compound and the lettuce has grown into the lid plate. The lettuce leafs were now cut off into the lid plate. Spodoptera eggs were pipetted through a plastic stencil on a humid gel blotting paper and the plate closed with it. The samples were assessed for mortality, anti-feedant effect and growth inhibition in comparison to untreated samples 6 days after infestation.

[3] = test system: Plutella xylostella (Diamond Back Moth); test: Example B3: Plutella xylostella, artificial diet; conditions: 120 h, read-out: effect in at least one of the two categories (mortality or growth inhibition)
Method: Example B3: Plutella xylostella (Diamond Back Moth)
24-well microtiter plates with artificial diet were treated with aqueous test solutions prepared from 10′000 ppm DMSO stock solutions by pipetting. After drying, the plates were infested with L2 larvae (10 to 15 per well). The samples were assessed for mortality and growth inhibition in comparison to untreated samples 5 days after infestation.

[4] = test system: Diabrotica Balteata (Corn Root Worm); test: Example B4: Diabrotica balteata, sprayed maize sprouts; conditions: 96 h, application rate of 200 ppm, L2 larvae, 4 days after infestation, read-out: effect in at least one of the two categories (mortality or growth inhibition)
Method: Example B4: Diabrotica Balteata (Corn Root Worm)
Maize sprouts, placed on an agar layer in 24-well microtiter plates were treated with aqueous test solutions prepared from 10′000 ppm DMSO stock solutions by spraying. After drying, the plates were infested with L2 larvae (6 to 10 per well). The samples were assessed for mortality and growth inhibition in comparison to untreated samples 4 days after infestation.

[5] = test system: Myzus persicae (Green Peach Aphid); test: Example B5: Myzus persicae, sprayed sunflower leaf discs; conditions: foliar, 144 h, application rate of 200 ppm, mixed ages, 6 days after infestation
Method: Example B5: Myzus persicae (Green Peach Aphid)
Sunflower leaf discs were placed on agar in a 24-well microtiter plate and sprayed with aqueous test solutions prepared from 10′000 ppm DMSO stock solutions. After drying, the leaf discs were infested with an aphid population of mixed ages. The samples were assessed for mortality 6 days after infestation.

[6] = test system: Euschistus heros (Neotropical Brown Stink Bug); test: Example B8: Euschistus heros, sprayed soybean leaf; conditions: 120 h, application rate of 200 ppm, N-2 nymphs, 5 days after infestation
Method: Example B8: Euschistus heros (Neotropical Brown Stink Bug)
Soybean leaf on agar in 24-well microtiter plates were sprayed with aqueous test solutions prepared from 10′000 ppm DMSO stock solutions. After drying the leaf were infested with N-2 nymphs. The samples were assessed for mortality 5 days after infestation.

[7] = test system: Myzus persicae (Green Peach Aphid); test: Example B6: Myzus persicae, roots of pea seedlings in test solution; conditions: 144 h, test rate of 24 ppm, pea seedling roots in test solution, 6 days
Method: Example B6: Myzus persicae (Green Peach Aphid)
Roots of pea seedlings infested with an aphid population of mixed ages were placed directly in the aqueous test solutions prepared from 10′000 DMSO stock solutions. The samples were assessed for mortality 6 days after placing seedlings in test solutions.

[8] = test system: Bemisia tabaci (Cotton White Fly); test: Example B7: Bemisia tabaci, sprayed cotton leaf discs; conditions: foliar, 144 h, application rate of 200 ppm, adult white flies, 6 days after incubation
Method: Example B7: Bemisia tabaci (Cotton White Fly)
Cotton leaf discs were placed on agar in 24-well microtiter plates and sprayed with aqueous test solutions prepared from 10′000 ppm DMSO stock solutions. After drying the leaf discs were infested with adult white flies. The samples were checked for mortality 6 days after incubation.

[9] = test system: Tetranychus urticae (Two-Spotted Spider Mite); test: Example B10: Tetranychus urticae, sprayed bean leaf discs; conditions: foliar, 192 h
Method: Example B10: Tetranychus urticae (Two-Spotted Spider Mite)
Bean leaf discs on agar in 24-well microtiter plates were sprayed with aqueous test solutions prepared from 10′000 ppm DMSO stock solutions. After drying the leaf discs were infested with a mite population of mixed ages. The samples were assessed for mortality on mixed population (mobile stages) 8 days after infestation.

[10] = test system: Frankliniella occidentalis (Western Flower Thrips); test: Example B12: Frankliniella occidentalis, sprayed sunflower leaf discs; conditions: foliar, 168 h, application rate of 200 ppm, mixed ages, 7 days after infestation
Method: Example B12: Frankliniella occidentalis (Western Flower Thrips)
Sunflower leaf discs were placed on agar in 24-well microtiter plates and sprayed with aqueous test solutions prepared from […] stock solutions. After drying the leaf discs were infested with a Frankliniella population of mixed ages. The samples were assessed for mortality 7 days after infestation.

[11] = application rate of 200 ppm, cotton leaf discs, L1 larvae, 3 days after infestation
[12] = application rate of 200 ppm, artificial diet, L2 larvae, 5 days after infestation

C/C=C/c1cnc(-c2nc3cc(C(F)(F)F)ncc3n2C)c(S(=O)(=O)CC)c1 [P6]
≥ 80%: percent control (mortality, anti-feedant effect or growth inhibition) at 200 ppm [1, 11] | percent control (mortality, anti-feedancy or growth inhibition) at 12.5 ppm [2] | percent effect (mortality or growth inhibition) at 200 ppm [3, 12] | percent effect (mortality or growth inhibition) at 200 ppm [4] | mortality at 200 ppm [5] | mortality at 200 ppm [6]

C#Cc1cnc(-c2nc3cc(C(F)(F)F)ncc3n2C)c(S(=O)(=O)CC)c1 [P2, 2-(3-ethylsulfonyl-5-ethynyl-2-pyridyl)-3-methyl-6-(trifluoromethyl)imidazo[4,5-c]pyridine]
≥ 80%: percent control (mortality, anti-feedant effect or growth inhibition) at 200 ppm [1, 11] | percent effect (mortality or growth inhibition) at 200 ppm [3, 12]

C=Cc1cnc(-c2nc3cc(C(F)(F)F)ncc3n2C)c(S(=O)(=O)CC)c1 [P3, 2-(3-ethylsulfonyl-5-vinyl-2-pyridyl)-3-methyl-6-(trifluoromethyl)imidazo[4,5-c]pyridine]
≥ 80%: percent control (mortality, anti-feedant effect or growth inhibition) at 200 ppm [1, 11] | percent effect (mortality or growth inhibition) at 200 ppm [3, 12] | percent effect (mortality or growth inhibition) at 200 ppm [4] | mortality at 200 ppm [5] | mortality at 24 ppm [7]

CCS(=O)(=O)c1cc(C2CC2)cnc1-c1nc2cc(C(F)(F)F)ncc2n1C [P7, 2-(5-cyclopropyl-3-ethylsulfonyl-2-pyridyl)-3-methyl-6-(trifluoromethyl)imidazo[4,5-c]pyridine]
≥ 80%: percent control (mortality, anti-feedant effect or growth inhibition) at 200 ppm [1, 11] | percent control (mortality, anti-feedancy or growth inhibition) at 12.5 ppm [2] | percent effect (mortality or growth inhibition) at 200 ppm [3, 12] | percent effect (mortality or growth inhibition) at 200 ppm [4] | mortality at 200 ppm [5] | mortality at 24 ppm [7] | mortality at 200 ppm [6]

CCS(=O)(=O)c1cc(C#Cc2ccc(Cl)cc2)cnc1-c1nc2cc(C(F)(F)F)ncc2n1C [P4]
≥ 80%: percent control (mortality, anti-feedant effect or growth inhibition) at 200 ppm [1, 11] | percent effect (mortality or growth inhibition) at 200 ppm [3, 12] | percent effect (mortality or growth inhibition) at 200 ppm [4] | mortality at 200 ppm [5]

CCS(=O)(=O)c1cc(/C=C/C2CCCCC2)cnc1-c1nc2cc(C(F)(F)F)ncc2n1C [P5]
≥ 80%: percent effect (mortality or growth inhibition) at 200 ppm [3, 12] | percent effect (mortality or growth inhibition) at 200 ppm [4] | mortality at 200 ppm [8]

C=C(c1ccc(-c2nc3cc(C(F)(F)F)ncc3n2C)c(S(=O)(=O)CC)c1)C(F)(F)F [P14]
≥ 80%: percent control (mortality, anti-feedant effect or growth inhibition) at 200 ppm [1, 11] | percent effect (mortality or growth inhibition) at 200 ppm [3, 12] | percent effect (mortality or growth inhibition) at 200 ppm [4]

C=C(c1cnc(-c2nc3cc(C(F)(F)F)ncc3n2C)c(S(=O)(=O)CC)c1)C(F)(F)F [P17, 2-[3-ethylsulfonyl-5-[1-(trifluoromethyl)vinyl]-2-pyridyl]-3-methyl-6-(trifluoromethyl)imidazo[4,5-c]pyridine]
≥ 80%: percent effect (mortality or growth inhibition) at 200 ppm [4]

CCS(=O)(=O)c1cc(C=C(C)C)cnc1-c1nc2cc(C(F)(F)F)ncc2n1C [P11]
≥ 80%: percent control (mortality, anti-feedant effect or growth inhibition) at 200 ppm [1, 11] | percent effect (mortality or growth inhibition) at 200 ppm [3, 12] | percent effect (mortality or growth inhibition) at 200 ppm [4] | mortality at 200 ppm [5] | mortality at 200 ppm [6]

C=Cc1ccc(-c2nc3cc(C(F)(F)F)ncc3n2C)c(S(=O)(=O)CC)c1 [P13]
≥ 80%: percent control (mortality, anti-feedant effect or growth inhibition) at 200 ppm [1, 11] | percent control (mortality, anti-feedancy or growth inhibition) at 12.5 ppm [2] | percent effect (mortality or growth inhibition) at 200 ppm [3, 12] | percent effect (mortality or growth inhibition) at 200 ppm [4]

CCS(=O)(=O)c1cc(/C=C/c2ccc(C(F)(F)F)cc2)ccc1-c1nc2cc(C(F)(F)F)ncc2n1C [P10]
≥ 80%: percent control (mortality, anti-feedant effect or growth inhibition) at 200 ppm [1, 11] | percent effect (mortality or growth inhibition) at 200 ppm [3, 12] | percent effect (mortality or growth inhibition) at 200 ppm [4] | mortality at 200 ppm [6]

CCS(=O)(=O)c1cc(C#CC(F)(F)F)ccc1-c1nc2cc(C(F)(F)F)ncc2n1C [P9]
≥ 80%: percent effect (mortality or growth inhibition) at 200 ppm [4] | mortality at 200 ppm [9]

CCS(=O)(=O)c1cc(C2(C#N)CC2)ccc1-c1nc2cc(C(F)(F)F)ncc2n1C [P15, 1-[3-ethylsulfonyl-4-[3-methyl-6-(trifluoromethyl)imidazo[4,5-c]pyridin-2-yl]phenyl]cyclopropanecarbonitrile]
≥ 80%: percent control (mortality, anti-feedant effect or growth inhibition) at 200 ppm [1, 11] | percent control (mortality, anti-feedancy or growth inhibition) at 12.5 ppm [2] | percent effect (mortality or growth inhibition) at 200 ppm [3, 12] | percent effect (mortality or growth inhibition) at 200 ppm [4] | mortality at 200 ppm [5] | mortality at 24 ppm [7] | mortality at 200 ppm [8] | mortality at 200 ppm [6] | mortality at 200 ppm [9] | mortality at 200 ppm [10]

CCS(=O)(=O)c1cc(C#C[Si](C)(C)C)cnc1-c1nc2cc(C(F)(F)F)ncc2n1C [P1, 2-[5-ethylsulfonyl-6-[3-methyl-6-(trifluoromethyl)imidazo[4,5-c]pyridin-2-yl]-3-pyridyl]ethynyl-trimethyl-silane]
≥ 80%: percent control (mortality, anti-feedant effect or growth inhibition) at 200 ppm [1] | percent effect (mortality or growth inhibition) at 200 ppm [3]

CCS(=O)(=O)c1cc(C#Cc2ccc(Cl)cc2)ccc1-c1nc2cc(C(F)(F)F)ncc2n1C [P8]
≥ 80%: percent control (mortality, anti-feedant effect or growth inhibition) at 200 ppm [1, 11] | percent control (mortality, anti-feedancy or growth inhibition) at 12.5 ppm [2] | percent effect (mortality or growth inhibition) at 200 ppm [3, 12] | percent effect (mortality or growth inhibition) at 200 ppm [4] | mortality at 200 ppm [8] | mortality at 200 ppm [6]

CCS(=O)(=O)c1cc(C2=CCC(C)(C)CC2)cnc1-c1nc2cc(C(F)(F)F)ncc2n1C [P12]
≥ 80%: percent effect (mortality or growth inhibition) at 200 ppm [3, 12] | mortality at 200 ppm [5] | mortality at 200 ppm [8] | mortality at 200 ppm [6]

From patent US10081641B2, “Pesticidally active heterocyclic derivatives with sulphur containing substituents” (Syngenta Participations AG, priority 2014, dated 2018)
